According to US12344600B2, “c-Myc mRNA translation modulators and uses thereof in the treatment of cancer” (Anima Biotech Inc., priority 2022, dated 2025):

System: c-Myc
Assay: c-Myc immunofluorescence assay
Assay type: cell-based, human
Settings: A549 cells, 24 hours, anti-c-Myc immunofluorescence
How it was run: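 A549 NSCLC cells grown 48 h, then treated 24 h with increasing compound concentrations; fixed in 4% paraformaldehyde, stained with anti-c-Myc antibody plus fluorescent secondary and DAPI. Per-cell c-Myc fluorescence quantified by high-content imaging at 20×; dose-response fitted by logistic regression to give EC50.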

Row | Compound | Myc Efficacy (−LogEC50)
1 | COc1ccc(-c2noc(N3CCC(C(=O)NCC4CCN(Cc5ccsc5)C4)CC3)n2)cc1 (centres unmarked) [Compound 357, 1-(3-(4-methoxyphenyl)-1,2,4-oxadiazol-5-yl)-N-((1-(thiophen-3-ylmethyl)pyrrolidin-3-yl)methyl)piperidine-4-carboxamide] | ++ (++ ≥5 and <6)
2 | COc1ccc(-c2noc(N3CCC(C(=O)NCC4CCN(Cc5ccccc5F)C4)CC3)n2)cc1 (centres unmarked) [Compound 358, N-((1-(2-fluorobenzyl)pyrrolidin-3-yl)methyl)-1-(3-(4-methoxyphenyl)-1,2,4-oxadiazol-5-yl)piperidine-4-carboxamide] | ++ (++ ≥5 and <6)
3 | COc1ccc(-c2noc(N3CCC(C(=O)NCC4CCN(Cc5ccncc5F)C4)CC3)n2)cc1 (centres unmarked) [Compound 359, N-((1-((3-fluoropyridin-4-yl)methyl)pyrrolidin-3-yl)methyl)-1-(3-(4-methoxyphenyl)-1,2,4-oxadiazol-5-yl)piperidine-4-carboxamide] | ++ (++ ≥5 and <6)
4 | COc1ccc(-c2noc(N3CCC(C(=O)NCC4CCN(Cc5cscn5)C4)CC3)n2)cc1 (centres unmarked) [Compound 360, 1-(3-(4-methoxyphenyl)-1,2,4-oxadiazol-5-yl)-N-((1-(thiazol-4-ylmethyl)pyrrolidin-3-yl)methyl)piperidine-4-carboxamide] | + (+ >3 and <5)
5 | COc1ccc(-c2noc(N3CCC(C(=O)NCC4CCN(CC5CCCCO5)C4)CC3)n2)cc1 (centres unmarked) [Compound 361, 1-(3-(4-methoxyphenyl)-1,2,4-oxadiazol-5-yl)-N-((1-((tetrahydro-2H-pyran-2-yl)methyl)pyrrolidin-3-yl)methyl)piperidine-4-carboxamide] | ++ (++ ≥5 and <6)
6 | COc1ccc(-c2noc(N3CCC(C(=O)NCC4CCN(CCO)C4)CC3)n2)cc1 (centres unmarked) [Compound 362, N-((1-(2-hydroxyethyl)pyrrolidin-3-yl)methyl)-1-(3-(4-methoxyphenyl)-1,2,4-oxadiazol-5-yl)piperidine-4-carboxamide] | + (+ >3 and <5)
7 | COc1ccc(-c2noc(N3CCC(C(=O)NCC4CCN(Cc5cccn5C)C4)CC3)n2)cc1 (centres unmarked) [Compound 363, 1-(3-(4-methoxyphenyl)-1,2,4-oxadiazol-5-yl)-N-((1-((1-methyl-1H-pyrrol-2-yl)methyl)pyrrolidin-3-yl)methyl)piperidine-4-carboxamide] | + (+ >3 and <5)
8 | COc1ccc(-c2noc(N3CCC(C(=O)NCC4CCN(Cc5nccs5)C4)CC3)n2)cc1 (centres unmarked) [Compound 364, 1-(3-(4-methoxyphenyl)-1,2,4-oxadiazol-5-yl)-N-((1-(thiazol-2-ylmethyl)pyrrolidin-3-yl)methyl)piperidine-4-carboxamide] | + (+ >3 and <5)
9 | COc1ccc(-c2noc(N3CCC(C(=O)NCC4CCN(Cc5cncc(C)c5)C4)CC3)n2)cc1 (centres unmarked) [Compound 365, 1-(3-(4-methoxyphenyl)-1,2,4-oxadiazol-5-yl)-N-((1-((5-methylpyridin-3-yl)methyl)pyrrolidin-3-yl)methyl)piperidine-4-carboxamide] | ++ (++ ≥5 and <6)
10 | COc1ccc(-c2noc(N3CCC(C(=O)NCC4CCN(CCF)C4)CC3)n2)cc1 (centres unmarked) [Compound 366, N-((1-(2-fluoroethyl)pyrrolidin-3-yl)methyl)-1-(3-(4-methoxyphenyl)-1,2,4-oxadiazol-5-yl)piperidine-4-carboxamide] | + (+ >3 and <5)
11 | COc1ccc(-c2noc(N3CCC(C(=O)NCC4CCN(CC(F)F)C4)CC3)n2)cc1 (centres unmarked) [Compound 367, N-((1-(2,2-difluoroethyl)pyrrolidin-3-yl)methyl)-1-(3-(4-methoxyphenyl)-1,2,4-oxadiazol-5-yl)piperidine-4-carboxamide] | + (+ >3 and <5)
12 | COc1ccc(-c2noc(N3CCC(C(=O)NCC4CCN(CC5CC5C)C4)CC3)n2)cc1 (centres unmarked) [Compound 368, 1-(3-(4-methoxyphenyl)-1,2,4-oxadiazol-5-yl)-N-((1-((2-methylcyclopropyl)methyl)pyrrolidin-3-yl)methyl)piperidine-4-carboxamide] | ++ (++ ≥5 and <6)
13 | COc1ccc(-c2noc(N3CCC(C(=O)NCC4CCN(C[C@@H]5CCCN5C)C4)CC3)n2)cc1 (stereo partly drawn) [Compound 369, 1-(3-(4-methoxyphenyl)-1,2,4-oxadiazol-5-yl)-N-((1-(((S)-1-methylpyrrolidin-2-yl)methyl)pyrrolidin-3-yl)methyl)piperidine-4-carboxamide] | + (+ >3 and <5)
14 | COc1ccc(-c2noc(N3CCC(C(=O)NCC4CCN(C5CCOC5)C4)CC3)n2)cc1 (centres unmarked) [Compound 370, 1-(3-(4-methoxyphenyl)-1,2,4-oxadiazol-5-yl)-N-((1-(tetrahydrofuran-3-yl)pyrrolidin-3-yl)methyl)piperidine-4-carboxamide] | + (+ >3 and <5)
15 | COc1ccc(-c2noc(N3CCC(C(=O)NCC4CCN(CC5(C)COC5)C4)CC3)n2)cc1 (centres unmarked) [Compound 371, 1-(3-(4-methoxyphenyl)-1,2,4-oxadiazol-5-yl)-N-((1-((3-methyloxetan-3-yl)methyl)pyrrolidin-3-yl)methyl)piperidine-4-carboxamide] | + (+ >3 and <5)
16 | COc1ccc(-c2noc(N3CCC(C(=O)NCC4CCN(Cc5cccs5)C4)CC3)n2)cc1 (centres unmarked) [Compound 372, 1-(3-(4-methoxyphenyl)-1,2,4-oxadiazol-5-yl)-N-((1-(thiophen-2-ylmethyl)pyrrolidin-3-yl)methyl)piperidine-4-carboxamide] | ++ (++ ≥5 and <6)
17 | COc1ccc(-c2noc(N3CCC(C(=O)NCC4CCN(Cc5cnsc5)C4)CC3)n2)cc1 (centres unmarked) [Compound 373, N-((1-(isothiazol-4-ylmethyl)pyrrolidin-3-yl)methyl)-1-(3-(4-methoxyphenyl)-1,2,4-oxadiazol-5-yl)piperidine-4-carboxamide] | ++ (++ ≥5 and <6)
18 | COc1ccc(-c2noc(N3CCC(C(=O)NCC4CCN(CC(C)C)C4)CC3)n2)cc1 (centres unmarked) [Compound 374, N-((1-isobutylpyrrolidin-3-yl)methyl)-1-(3-(4-methoxyphenyl)-1,2,4-oxadiazol-5-yl)piperidine-4-carboxamide] | + (+ >3 and <5)
19 | COc1ccc(-c2noc(N3CCC(C(=O)NCC4CCN(CC5CCCOC5)C4)CC3)n2)cc1 (centres unmarked) [Compound 375, 1-(3-(4-methoxyphenyl)-1,2,4-oxadiazol-5-yl)-N-((1-((tetrahydro-2H-pyran-3-yl)methyl)pyrrolidin-3-yl)methyl)piperidine-4-carboxamide] | ++ (++ ≥5 and <6)
20 | CCN1CCC(CNC(=O)C2CCN(c3nc(-c4ccc(OC)cc4)no3)CC2)C1 (centres unmarked) [Compound 376, N-((1-ethylpyrrolidin-3-yl)methyl)-1-(3-(4-methoxyphenyl)-1,2,4-oxadiazol-5-yl)piperidine-4-carboxamide] | − (− ≤3)
21 | COc1ccc(-c2noc(N3CCC(C(=O)NCC4CCN(CC5(C)CCOCC5)C4)CC3)n2)cc1 (centres unmarked) [Compound 377, 1-(3-(4-methoxyphenyl)-1,2,4-oxadiazol-5-yl)-N-((1-((4-methyltetrahydro-2H-pyran-4-yl)methyl)pyrrolidin-3-yl)methyl)piperidine-4-carboxamide] | + (+ >3 and <5)
22 | C#Cc1ccc(CN2CCC(CNC(=O)C3CCN(c4nc(-c5ccc(OC)cc5)no4)CC3)C2)cc1 (centres unmarked) [Compound 378, N-((1-(4-ethynylbenzyl)pyrrolidin-3-yl)methyl)-1-(3-(4-methoxyphenyl)-1,2,4-oxadiazol-5-yl)piperidine-4-carboxamide] | ++ (++ ≥5 and <6)
23 | COc1ccc(-c2noc(N3CCC(C(=O)NCC4CCN(Cc5ccc(C)o5)C4)CC3)n2)cc1 (centres unmarked) [Compound 379, 1-(3-(4-methoxyphenyl)-1,2,4-oxadiazol-5-yl)-N-((1-((5-methylfuran-2-yl)methyl)pyrrolidin-3-yl)methyl)piperidine-4-carboxamide] | ++ (++ ≥5 and <6)
24 | COc1ccc(-c2noc(N3CCC(C(=O)NCC4CCN(Cc5cccnc5C)C4)CC3)n2)cc1 (centres unmarked) [Compound 380, 1-(3-(4-methoxyphenyl)-1,2,4-oxadiazol-5-yl)-N-((1-((2-methylpyridin-3-yl)methyl)pyrrolidin-3-yl)methyl)piperidine-4-carboxamide] | ++ (++ ≥5 and <6)
25 | COc1ccc(-c2noc(N3CCC(C(=O)NCC4CCN(Cc5sccc5C)C4)CC3)n2)cc1 (centres unmarked) [Compound 381, 1-(3-(4-methoxyphenyl)-1,2,4-oxadiazol-5-yl)-N-((1-((3-methylthiophen-2-yl)methyl)pyrrolidin-3-yl)methyl)piperidine-4-carboxamide] | ++ (++ ≥5 and <6)
26 | COc1ccc(-c2noc(N3CCC(C(=O)NCC4CCN(Cc5cc(C)co5)C4)CC3)n2)cc1 (centres unmarked) [Compound 382, 1-(3-(4-methoxyphenyl)-1,2,4-oxadiazol-5-yl)-N-((1-((4-methylfuran-2-yl)methyl)pyrrolidin-3-yl)methyl)piperidine-4-carboxamide] | ++ (++ ≥5 and <6)
27 | COc1ccc(-c2noc(N3CCC(C(=O)NCC4CCN(Cc5csc(C)n5)C4)CC3)n2)cc1 (centres unmarked) [Compound 383, 1-(3-(4-methoxyphenyl)-1,2,4-oxadiazol-5-yl)-N-((1-((2-methylthiazol-4-yl)methyl)pyrrolidin-3-yl)methyl)piperidine-4-carboxamide] | ++ (++ ≥5 and <6)
28 | COc1ccc(-c2noc(N3CCC(C(=O)NCC4CCN(Cc5nc(C)cs5)C4)CC3)n2)cc1 (centres unmarked) [Compound 384, 1-(3-(4-methoxyphenyl)-1,2,4-oxadiazol-5-yl)-N-((1-((4-methylthiazol-2-yl)methyl)pyrrolidin-3-yl)methyl)piperidine-4-carboxamide] | ++ (++ ≥5 and <6)
29 | COc1ccc(-c2noc(N3CCC(C(=O)NCC4CCN(Cc5ccc(C)s5)C4)CC3)n2)cc1 (centres unmarked) [Compound 385, 1-(3-(4-methoxyphenyl)-1,2,4-oxadiazol-5-yl)-N-((1-((5-methylthiophen-2-yl)methyl)pyrrolidin-3-yl)methyl)piperidine-4-carboxamide] | ++ (++ ≥5 and <6)
